Values quoted from earlier work, collected in US20080171795A1, “Novel Inter and Intra Multilamellar Vesicular Composition” (LIFE-CARE INNOVATIONS PVT. LTD., priority 2005, published 2008).
Like-named read-outs stand apart in the source and are kept apart here.

Columns and labels:
psoriasis = settings: compared with dithranol
[1] = topical, skin with impaired stratum corneum barrier

Row | Structure (SMILES) | Efficacy (psoriasis) | Irritancy and staining (psoriasis) | Time to penetrate into the skin [1] [min] | Solubility (in acetone) | Solubility (in alcohol, ether, glacial acetic acid) | Solubility (in dilute solution of alkali hydroxides) | Solubility (in methylene chloride, chloroform) | Solubility (in water) | Solubility (in water, listed as dithranol)
1 | CC(=O)Oc1cccc2cc3cccc(OC(C)=O)c3c(OC(C)=O)c12 [triacetyldithranol] | compromised | reduced irritancy and staining |  |  |  |  |  |  | 
2 | CCCC(=O)C1c2cccc(O)c2C(=O)c2c(O)cccc21 [butantrone, 10-butyryldithranol] | compromised | reduced irritancy and staining |  |  |  |  |  |  | 
3 | O=C1c2c(O)cccc2Cc2cccc(O)c21 [Dithranol, 1,8-dihydroxyanthrone] |  |  | 30 | alcohol, ether, glacial acetic acid, sparingly | slightly soluble | chloroform. dissolves in dilute solution of alkali | soluble in acetone, soluble in methylene chloride, | Practically insoluble | insoluble in water
